Laboratory results: patent US20220242846A1, “ISOINDOLINONE COMPOUNDS” (Monte Rosa Therapeutics AG, priority 2019, published 2022)
Where two headings read alike, the source gives them in different places.

Tested on: Human mammary epithelial cells (HMEC) engineered to express c-myc tagged with EGFP
Test: 3D spheroid assay, myc-HMEC (CellTiterGlo3D viability)
Assay type: cell-based

**Q.** How did the EC50 (Homo sapiens, HMEC, 120 h, 3D spheroids, 5 days with compound, read-out: Code: EC50 value in the myc-HMEC assay) turn out when `Cc1ccc(NC(=O)NCc2ccc3c(c2)C(=O)N(C2CCC(=O)NC2=O)C3)cc1Cl` (centres unmarked) [Compound 8] was run?
**A.** The EC50 was at most 0.4 µM.

**Q.** And the EC50 (myc-HMEC 3D spheroids (compounds with code D and E), 5 days, read-out: EC50)?
**A.** The EC50 was 0.22 µM.
